Assay results taken from ChEMBL document CHEMBL4014293, “Highly oxygenated antiausterity agents from the leaves of Uvaria dac” (2017).
Active and inactive are the calls of the source. No cut-off for these calls is given here.

Experiments:
MIA PaCa-2 = experiment: Antiausteritic activity against human MIAPaCa2 cells in nutrient deprived medium after 24 hrs by WST8 assay; type: functional
KLM1 = experiment: Antiausteritic activity human KLM1 cells in nutrient deprived medium after 24 hrs by WST8 assay; type: functional
CAPAN-1 = experiment: Antiausteritic activity against human Capan1 cells in nutrient deprived medium after 24 hrs by WST8 assay; type: functional
PSN1 = experiment: Antiausteritic activity against human PSN1 cells in nutrient deprived medium after 24 hrs by WST8 assay; type: functional
PANC-1 [1] = experiment: Antiausteritic activity against human PANC1 cells in nutrient deprived medium after 24 hrs by WST8 assay; type: functional
PANC-1 [2] = experiment: Antiausteritic activity against human PANC1 cells in nutrient deprived medium assessed as induction of morphological changes at 25 to 50 uM after 24 hrs by ethidium bromide/acridine orange staining based fluorescent/phase contrast microscopic method; type: functional, cell-based

SMILES	Activity (MIA PaCa-2)	Activity (KLM1)	Activity (CAPAN-1)	Activity (PSN1)	Activity (PANC-1 [1])	PC50 (MIA PaCa-2) [µM]	PC50 (CAPAN-1) [µM]	PC50 (PSN1) [µM]	PC50 (PANC-1 [1]) [µM]	Activity (PANC-1 [2])
CCCCCCCCCCCCCCCCCC(=O)O[C@@H]1C=C(COC(=O)c2ccccc2)[C@@H](O)[C@H](OC(=O)c2ccccc2)[C@H]1O	Dose-dependent effect	Dose-dependent effect	Dose-dependent effect	Dose-dependent effect	Dose-dependent effect	–	–	–	–	–
O=C(OCC1=C[C@@H](OC(=O)c2ccccc2)[C@H](OC(=O)c2ccccc2)[C@@H](O)[C@@H]1O)c1ccccc1	Dose-dependent effect	Dose-dependent effect	Dose-dependent effect	Dose-dependent effect	Dose-dependent effect	–	–	–	–	–
CCCCCCCCCCCCCCCCCC(=O)O[C@@H]1C=C(COC(=O)c2ccccc2)[C@@H](O)[C@H](O)[C@H]1OC(=O)c1ccccc1	Dose-dependent effect	Dose-dependent effect	Dose-dependent effect	Dose-dependent effect	Dose-dependent effect	–	–	–	–	–
O=C(OCC1=C[C@@H](OC(=O)c2ccccc2)[C@H](O)[C@@H](OC(=O)c2ccccc2)[C@@H]1O)c1ccccc1	Dose-dependent effect	Dose-dependent effect	Dose-dependent effect	Dose-dependent effect	Dose-dependent effect	29.1	73	9.7	20.1	Active
